Drawing on US20230279023A1, “N/O-Linked Degrons and Degronimers for Protein Degradation” (C4 Therapeutics, Inc., priority 2019, published 2023), this text covers Kd for 34 molecules.

Where a name gives a salt, the structure may show the parent alone.

The assay has as its target CRBN-DDB1 (Homo sapiens (Human), UniProt Q96SW2). As to the kind of experiment: Fluorescence polarization (FP) assay for compound ligand binding to CRBN-DDB1. Conditions: FP displacement of (−)-Thalidomide-Alexa Fluor or Pomalidomide-fluorescein probe, 400 nM CRBN-DDB1, 5 nM probe. The method, then: Measuring compound ligand binding to CRBN-DDB1 was carried out using an established sensitive and quantitative in vitro fluorescence polarization (FP) based binding assay. […] Compounds were dispensed from serially diluted DMSO stock into black 384-well compatible fluorescence polarization plates using an Echo acoustic dispenser. Compound binding to CRBN-DDB1 was measured by displacement of either a (−)-Thalidomide-Alexa Fluor® or Pomalidomide-fluorescein conjugated probe dye. […] Matching control wells excluding CRBN-DDB1 were used to correct for background fluorescence. Plates were read on an Envision plate reader with appropriate FP filter sets. The corrected S (perpendicular) and P (parallel) values were used to calculate fluorescence polarization (FP) with the following equation: […]
A general note: Polarisation of emitted light reports the rotation of a fluorescent probe.

Where [1] appears, read: Compounds of the Present Invention.
Setting [2] is: Additional Compounds of the Present Invention.

Chain of CRBN-DDB1 (Q96SW2 whole entry): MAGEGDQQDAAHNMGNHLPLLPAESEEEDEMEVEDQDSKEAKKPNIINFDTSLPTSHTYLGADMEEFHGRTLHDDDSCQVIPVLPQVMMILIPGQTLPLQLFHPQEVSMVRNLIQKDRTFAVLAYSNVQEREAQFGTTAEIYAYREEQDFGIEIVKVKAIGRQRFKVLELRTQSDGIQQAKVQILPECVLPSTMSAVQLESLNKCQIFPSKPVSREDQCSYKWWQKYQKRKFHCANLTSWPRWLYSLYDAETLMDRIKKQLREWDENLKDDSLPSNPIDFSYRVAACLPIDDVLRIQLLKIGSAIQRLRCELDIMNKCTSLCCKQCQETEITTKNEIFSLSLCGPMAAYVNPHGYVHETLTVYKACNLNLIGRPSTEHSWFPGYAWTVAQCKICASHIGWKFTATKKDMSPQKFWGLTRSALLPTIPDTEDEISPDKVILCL
Chain of CRBN-DDB1 (Q16531 whole entry partner): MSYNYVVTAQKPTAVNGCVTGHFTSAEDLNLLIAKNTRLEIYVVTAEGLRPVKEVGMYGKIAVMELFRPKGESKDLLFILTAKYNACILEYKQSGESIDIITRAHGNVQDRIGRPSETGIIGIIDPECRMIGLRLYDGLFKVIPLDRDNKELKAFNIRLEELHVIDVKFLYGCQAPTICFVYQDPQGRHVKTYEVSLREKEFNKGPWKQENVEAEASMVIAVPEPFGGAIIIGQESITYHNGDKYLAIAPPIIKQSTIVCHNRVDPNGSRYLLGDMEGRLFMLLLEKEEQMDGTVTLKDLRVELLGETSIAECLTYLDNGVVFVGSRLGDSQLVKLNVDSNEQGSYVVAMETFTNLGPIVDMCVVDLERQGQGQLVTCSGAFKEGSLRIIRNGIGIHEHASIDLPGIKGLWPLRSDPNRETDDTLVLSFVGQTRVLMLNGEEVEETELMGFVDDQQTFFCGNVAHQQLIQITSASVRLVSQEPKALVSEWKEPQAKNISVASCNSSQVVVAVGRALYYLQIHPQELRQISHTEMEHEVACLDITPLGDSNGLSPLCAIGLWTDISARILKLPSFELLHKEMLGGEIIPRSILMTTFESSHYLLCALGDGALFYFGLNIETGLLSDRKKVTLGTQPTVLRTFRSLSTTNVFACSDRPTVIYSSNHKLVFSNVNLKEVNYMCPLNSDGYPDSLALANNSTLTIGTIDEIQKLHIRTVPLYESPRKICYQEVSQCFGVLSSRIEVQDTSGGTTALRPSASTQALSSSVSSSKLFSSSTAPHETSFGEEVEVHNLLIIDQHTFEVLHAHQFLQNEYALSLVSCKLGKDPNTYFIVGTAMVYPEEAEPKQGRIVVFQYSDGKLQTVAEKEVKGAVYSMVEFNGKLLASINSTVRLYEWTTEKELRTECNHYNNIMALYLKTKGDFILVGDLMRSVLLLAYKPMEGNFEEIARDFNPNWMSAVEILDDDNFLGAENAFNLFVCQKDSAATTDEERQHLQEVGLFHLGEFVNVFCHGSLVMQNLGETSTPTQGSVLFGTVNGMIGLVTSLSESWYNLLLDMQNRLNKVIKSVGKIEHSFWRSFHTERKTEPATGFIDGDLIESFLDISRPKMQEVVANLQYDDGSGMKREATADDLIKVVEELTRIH

With `N#Cc1c[nH]nc1NC1CCC(=O)NC1=O` (stereo not shown) [Compound 96], the equilibrium dissociation constant (Kd) under setting [1] was above 100 µM.
Molecule `CN(C1COC1)C1CCC(=O)NC1=O` (stereo not shown) [Compound 97] registered a Kd under setting [1] above 100 µM.
Still for that read-out and setting: the same measure for `O=C1CCC(NC2CC(=O)N(c3ccccc3)C2)C(=O)N1` (stereo not shown) [Compound 99]: above 100 µM.
`CN(C1CNC1)C1CCC(=O)NC1=O` (stereo not shown) [Compound 101] had a Kd under setting [1] above 100 µM.
Take `CN1CC(N(C)C2CCC(=O)NC2=O)C1` (stereo not shown) [Compound 102]: the dissociation constant (Kd) under setting [1] was above 100 µM.
Still for that read-out and setting: for `CN1CCC(N(C)C2CCC(=O)NC2=O)CC1=O` (stereo not shown) [Compound 106] the value was above 100 µM; for `CN(CC(=O)O)C1CCC(=O)NC1=O` (stereo not shown) [Compound 107], above 100 µM.
Turning to `CNC(=O)CN(C)C1CCC(=O)NC1=O` (stereo not shown) [Compound 109], under setting [1], the Kd was above 100 µM.
In turn, `CC(C)(C)OC(=O)N1CCN(C2=CC(=O)NC2=O)CC1` [Compound 111] registered a Kd under setting [1] above 100 µM.
Under setting [1], `O=C1C=C(Nc2ccccc2)C(=O)N1` [Compound 112] showed a Kd above 100 µM.
The same measure, in the same setting: for `O=C1CCC(N2CCc3cccnc32)C(=O)N1` (stereo not shown) [Compound 118] the value was above 100 µM; for `COC(=O)c1cccnc1NC1CCC(=O)NC1=O` (stereo not shown) [Compound 122], above 100 µM; for `CN1CCN(c2ccc(OC3CCC(=O)NC3=O)cc2)CC1` (stereo not shown) [Compound 126], below 10 µM.
For `CC(C)(C)OC(=O)N1CCN(c2ccc(OC3CCC(=O)NC3=O)cc2)CC1` (stereo not shown) [Compound 132, 4-[4-(2,6-Dioxo-piperidin-3-yloxy)-phenyl]-piperazine-1-carboxylic acid tert-butyl ester], the Kd under setting [2] is below 10 µM.
`O=C1CCC(Oc2ccc(N3CCNCC3)cc2)C(=O)N1` (stereo not shown) [Compound 133, 3-(4-Piperazin-1-yl-phenoxy)-piperidine-2,6-dione hydrochloride]: the equilibrium dissociation constant (Kd) under setting [2] was below 10 µM.
Consider `O=C1CCC(OC2CCN(c3ccccc3)CC2)C(=O)N1` (stereo not shown) [Compound 134, 3-(1-Phenyl-piperidin-4-yloxy)-piperidine-2,6-dione], for which the Kd under setting [2] was above 100 µM.
Regarding `O=C1CCC(Oc2ccc3ccccc3c2)C(=O)N1` (stereo not shown) [Compound 135], the Kd under setting [2] is below 10 µM.
On the same count and under the same terms, the same measure for `O=C1CCC(Oc2ccccc2C(=O)N2CCCC2)C(=O)N1` (stereo not shown) [Compound 136]: above 100 µM; for `CCc1ccc(OC2CCC(=O)NC2=O)cc1` (stereo not shown) [Compound 137]: below 10 µM.
The same measure, in the same setting: the same measure for `N#Cc1ccc2cc(OC3CCC(=O)NC3=O)ccc2c1` (stereo not shown) [Compound 138]: below 10 µM.
Take `N#Cc1ccc(-c2ccc(OC3CCC(=O)NC3=O)cc2)cc1` (stereo not shown) [Compound 139]: the Kd under setting [2] was below 10 µM.
For the molecule `Cn1ccc2cc(OC3CCC(=O)NC3=O)ccc21` (stereo not shown) [Compound 140], the Kd under setting [2] was below 10 µM.
Still for that read-out and setting: for `CCOc1cccc(OC2CCC(=O)NC2=O)c1` (stereo not shown) [Compound 141] the value was below 10 µM.
On the same count and under the same terms, for `CC1(C)Cc2cccc(OC3CCC(=O)NC3=O)c2O1` (stereo not shown) [Compound 145] the value was below 10 µM.
On the same count and under the same terms, the same measure for `O=C1CCC(Oc2cccc3cccnc23)C(=O)N1` (stereo not shown) [Compound 147]: below 10 µM; for `O=C1CCC(Oc2ccc3c(c2)CCCC3=O)C(=O)N1` (stereo not shown) [Compound 148]: below 10 µM; for `O=C1CCC(Oc2ccc3c(c2)OCO3)C(=O)N1` (stereo not shown) [Compound 149]: below 10 µM.
`C#Cc1cccc(OC2CCC(=O)NC2=O)c1` (stereo not shown) [Compound 150] yielded a Kd under setting [2] below 10 µM.
Under setting [2], `CN(C)c1cccc(OC2CCC(=O)NC2=O)c1` (stereo not shown) [Compound 151] displayed a Kd below 10 µM.
On the same count and under the same terms, the same measure for `O=C1CCC(Oc2ccc(C3CCCC3)cc2)C(=O)N1` (stereo not shown) [Compound 152]: below 10 µM; for `CC(=O)CCc1ccc(OC2CCC(=O)NC2=O)cc1` (stereo not shown) [Compound 154]: below 10 µM; for `CN1Cc2cc(NC3CCC(=O)NC3=O)ccc2C1=O` (stereo not shown) [Compound 160]: below 10 µM.
`Cc1sc2c(c1C)C(c1ccc(Cl)cc1)=N[C@@H](CC(=O)NCCCCCCCCN1CCN(c3ccc(NC4CCC(=O)NC4=O)cc3)CC1)c1nnc(C)n1-2` (stereo partly drawn) [Degronimer 1, 2-((S)-4-(4-chlorophenyl)-2,3,9-trimethyl-6H-thieno[3,2-f][1,2,4]triazolo[4,3-a][1,4]diazepin-6-yl)-N-(8-(4-(4-((2,6-dioxopiperidin-3-yl)amino)phenyl)piperazin-1-yl)octyl)acetamide] gave an equilibrium dissociation constant (Kd) (Degronimers) below 10 µM.
In turn, `Cc1nnc2n1-c1ccc(-c3cnn(CCCCCCN4CCN(c5ccc(NC6CCC(=O)NC6=O)cc5)CC4)c3)cc1C(c1ccc(Cl)cc1)=NC21CC1` (stereo not shown) [Degronimer 2, 3-((4-(4-(6-(4-(6-(4-chlorophenyl)-1-methylspiro[benzo[f][1,2,4]triazolo[4,3-a][1,4]diazepine-4,1′-cyclopropan]-8-yl)-1H-pyrazol-1-yl)hexyl)piperazin-1-yl)phenyl)amino)piperidine-2,6-dione] had a Kd (Degronimers) below 10 µM.

As a reminder, the Kd is the free concentration of one partner at which half of the binding sites on the other are occupied at equilibrium, for simple one-to-one binding. High values mean weaker binding, low ones tighter binding.
